{
  "source": "patent US9758538B2",
  "about": "“Pyrimidine derivatives” (PFIZER INC., priority 2015, dated 2017)",
  "note": "pKi: −log10 of the molar value.",
  "data": [
    {"molecular_target": "truncated PI3Kα (p110α/iSH2 p85α), PI3KA_Act (Homo sapiens (Human), UniProt P42336)", "sequence (P42336 whole entry, the tested form may be a part)": "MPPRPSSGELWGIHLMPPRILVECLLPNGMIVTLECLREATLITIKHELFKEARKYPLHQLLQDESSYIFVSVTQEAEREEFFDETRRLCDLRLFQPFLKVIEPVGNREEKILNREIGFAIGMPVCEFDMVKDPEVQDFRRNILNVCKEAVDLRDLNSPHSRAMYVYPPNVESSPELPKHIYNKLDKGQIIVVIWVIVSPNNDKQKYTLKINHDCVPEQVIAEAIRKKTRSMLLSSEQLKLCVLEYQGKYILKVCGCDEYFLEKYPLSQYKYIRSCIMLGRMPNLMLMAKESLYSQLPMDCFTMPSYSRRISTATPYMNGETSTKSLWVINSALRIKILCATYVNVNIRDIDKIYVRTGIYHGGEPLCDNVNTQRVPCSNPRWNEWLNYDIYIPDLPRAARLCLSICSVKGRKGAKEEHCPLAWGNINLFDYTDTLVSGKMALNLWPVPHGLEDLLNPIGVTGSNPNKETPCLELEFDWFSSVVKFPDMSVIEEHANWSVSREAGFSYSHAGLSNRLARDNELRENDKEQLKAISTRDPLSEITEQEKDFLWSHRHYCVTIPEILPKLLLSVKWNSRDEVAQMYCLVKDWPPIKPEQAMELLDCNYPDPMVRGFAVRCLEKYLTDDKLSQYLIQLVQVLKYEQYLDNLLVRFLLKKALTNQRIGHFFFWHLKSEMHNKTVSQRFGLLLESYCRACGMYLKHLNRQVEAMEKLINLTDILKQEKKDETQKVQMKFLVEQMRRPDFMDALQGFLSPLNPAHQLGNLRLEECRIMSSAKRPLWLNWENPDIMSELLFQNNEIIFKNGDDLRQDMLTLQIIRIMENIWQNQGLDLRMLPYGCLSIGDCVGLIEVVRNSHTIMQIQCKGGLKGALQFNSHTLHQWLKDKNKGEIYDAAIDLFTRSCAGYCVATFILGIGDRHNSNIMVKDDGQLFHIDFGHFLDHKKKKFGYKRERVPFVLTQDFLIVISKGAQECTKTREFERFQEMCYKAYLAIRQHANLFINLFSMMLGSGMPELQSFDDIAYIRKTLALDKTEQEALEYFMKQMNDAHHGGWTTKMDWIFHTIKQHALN", "assay": "PI3Kα biochemical kinase assay, fluorescence polarization format (PI3KA_Act)", "details": "0.5 nM p110α/iSH2 p85, 1 mM ATP, 30 μM PIP2, 15-min preincubation; Morrison equation fit; read-out: PI3KA_Act Ki", "description": "Enzyme Production for Biochemical Assay: p110α-iSH2 p85α Complex (Full Length p110α and p85α iSH2)(“PI3KA Act”)\nGene encoding p110α subunit was subcloned into polyhedrine promoter while gene encoding p85α niSH2 domains was subcloned into p10 promoter. […] Recombinant baculovirus was generated using Bac-to-Bac protocol (Life Technologies, Carlsbad, Calif.). Large scale expression was conducted in Sf21 (Life Technologies, Carlsbad, Calif.) cells at a multiplicity of infection (“MOI”)=1 for 48 hours. Cells were lyzed in 50 mM Tris pH 8.0, 250 mM NaCl, 5% glycerol, 0.25 mM TCEP, and 20 mM imidazole. The p110α-niSH2 p85α complex was purified from clarified supernatant using Immobilized Metalo Affinity Chromatography (“IMAC”). The protein was eluted from the column using 50 mM Tris pH 8.0, 200 mM NaCl, 0.25 mM TCEP, and 200 mM imidazole. Following elution p110α-niSH2 p85α complex was dialyzed against 4 liters of 50 mM Tris pH 8.0, 200 mM NaCl, 0.25 mM TCEP, and 40 mM imidazole in the presence of PreScission Protease (1:70 molar ratio of Protease to Protein) and TEV protease (1:40 molar ratio protease to protein) for 16 hours at 4° C. The protein was further purified using reverse IMAC to remove cleaved histidine tag and contaminants captured during initial IMAC purification. The mixture of p110α-iSH2 p85α complex and cleaved nSH2 was recovered in reverse IMAC 40 mM imidazole flow through and 60 mM imidazole wash fractions. Those fractions were pulled together and loaded on Superdex 200 26/60 SEC column equilibrated in 25 mM Tris, pH 8.0, 100 mM NaCl, 2% glycerol, and 2 mM TCEP.\nThe enzymatic reactions were conducted in 50 μL volumes in 96-well plates. […] The reactions were incubated for 30 min at room temperature, stopped with EDTA pH 8 (10 mM final concentration). […] The plate was shaken for 30 minutes and fluorescence polarization values were measured on an LJL Analyst HT plate reader (Molecular Devices, Sunnyvale, Calif.).", "values": [
      {"smiles": "Cn1ccnc1C(=O)N1CC[C@](CO)(Nc2cc(-c3cnc(N)nc3)nc(N3CCOCC3)n2)C1", "note": "[Example 73, [(3S)-3-{[2′-amino-2-(morpholin-4-yl)-4,5′-bipyrimidin-6-yl]amino}-3-(hydroxymethyl)pyrrolidin-1-yl](1-methyl-1H-imidazol-2-yl)methanone]", "pKi": 9.13},
      {"smiles": "CN1CCC(N2CC[C@](CO)(Nc3cc(-c4cnc(N)nc4)nc(N4CCOCC4)n3)C2)C1=O", "note": "(stereo partly drawn) [Example 76, (3S)-3-{[2′-amino-2-(morpholin-4-yl)-4,5′-bipyrimidin-6-yl]amino}-3-(hydroxymethyl)-1′-methyl-1,3′-bipyrrolidin-2′-one]", "pKi": 8.74},
      {"smiles": "CCCOC(=O)N1CC[C@](CO)(Nc2cc(-c3cnc(N)nc3)nc(N3CCOCC3)n2)C1", "note": "[Example 77, propyl (3S)-3-{[2′-amino-2-(morpholin-4-yl)-4,5′-bipyrimidin-6-yl]amino}-3-(hydroxymethyl)pyrrolidine-1-carboxylate]", "pKi": "> 10.74"},
      {"smiles": "Nc1ncc(-c2cc(N[C@@]3(CO)CCN(C(=O)N4CCCC4)C3)nc(N3CCOCC3)n2)cn1", "note": "[Example 78, [(3S)-3-{[2′-amino-2-(morpholin-4-yl)-4,5′-bipyrimidin-6-yl]amino}-3-(hydroxymethyl)pyrrolidin-1-yl](pyrrolidin-1-yl)methanone]", "pKi": 9.57},
      {"smiles": "Nc1ncc(-c2cc(N[C@@]3(CO)CCN(C(=O)OCC(F)F)C3)nc(N3CCOCC3)n2)cn1", "note": "[Example 79, 2,2-difluoroethyl (3S)-3-{[2′-amino-2-(morpholin-4-yl)-4,5′-bipyrimidin-6-yl]amino}-3-(hydroxymethyl)pyrrolidine-1-carboxylate]", "pKi": 10.68},
      {"smiles": "Nc1ncc(-c2cc(N[C@@]3(CO)CCN(C4CCNC4=O)C3)nc(N3CCOCC3)n2)cn1", "note": "(stereo partly drawn) [Example 80, (3S)-3-{[2′-amino-2-(morpholin-4-yl)-4,5′-bipyrimidin-6-yl]amino}-3-(hydroxymethyl)-1,3′-bipyrrolidin-2′-one]", "pKi": 8.71},
      {"smiles": "Cn1cc(C(=O)N2CC[C@](CO)(Nc3cc(-c4cnc(N)nc4)nc(N4CCOCC4)n3)C2)cn1", "note": "[Example 81, [(3S)-3-{[2′-amino-2-(morpholin-4-yl)-4,5′-bipyrimidin-6-yl]amino}-3-(hydroxymethyl)pyrrolidin-1-yl](1-methyl-1H-pyrazol-4-yl)methanone]", "pKi": 9.51},
      {"smiles": "CCOC(=O)N1CC[C@](CO)(Nc2nc(-c3cnc(N)nc3)nc(N3CCOCC3)n2)C1", "note": "[Example 82, ethyl (3S)-3-{[4-(2-aminopyrimidin-5-yl)-6-(morpholin-4-yl)-1,3,5-triazin-2-yl]amino}-3-(hydroxymethyl)pyrrolidine-1-carboxylate]", "pKi": 10.57},
      {"smiles": "CC(C)OC(=O)N1CC[C@](CO)(Nc2nc(-c3cnc(N)nc3)nc(N3CCOCC3)n2)C1", "note": "[Example 83, propan-2-yl (3S)-3-{[4-(2-aminopyrimidin-5-yl)-6-(morpholin-4-yl)-1,3,5-triazin-2-yl]amino}-3-(hydroxymethyl)pyrrolidine-1-carboxylate]", "pKi": 9.67},
      {"smiles": "CN1CCCC(N2CC[C@](CO)(Nc3cc(-c4cnc(N)nc4)nc(N4CCOCC4)n3)C2)C1=O", "note": "(stereo partly drawn) [Example 84, 3-[(3S)-3-{[2′-amino-2-(morpholin-4-yl)-4,5′-bipyrimidin-6-yl]amino}-3-(hydroxymethyl)pyrrolidin-1-yl]-1-methylpiperidin-2-one]", "pKi": 9.35},
      {"smiles": "Nc1ncc(-c2cc(N[C@@]3(CO)CCN(c4ccccn4)C3)nc(N3CCOCC3)n2)cn1", "note": "[Example 85, [(3S)-3-{[2′-amino-2-(morpholin-4-yl)-4,5′-bipyrimidin-6-yl]amino}-1-(pyridin-2-yl)pyrrolidin-3-yl]methanol]", "pKi": 10.17},
      {"smiles": "Nc1ncc(-c2cc(N[C@@]3(CO)CCN(C(=O)c4ncc[nH]4)C3)nc(N3CCOCC3)n2)cn1", "note": "[Example 86, [(3S)-3-{[2′-amino-2-(morpholin-4-yl)-4,5′-bipyrimidin-6-yl]amino}-3-(hydroxymethyl)pyrrolidin-1-yl](1H-imidazol-2-yl)methanone]", "pKi": 10.59},
      {"smiles": "Nc1ncc(-c2cc(N[C@@]3(CO)CCN(C(=O)c4ncccn4)C3)nc(N3CCOCC3)n2)cn1", "note": "[Example 87, [(3S)-3-{[2′-amino-2-(morpholin-4-yl)-4,5′-bipyrimidin-6-yl]amino}-3-(hydroxymethyl)pyrrolidin-1-yl](pyrimidin-2-yl)methanone]", "pKi": 10.07},
      {"smiles": "Nc1ncc(-c2cc(N[C@@]3(CO)CCN(C4CCCNC4=O)C3)nc(N3CCOCC3)n2)cn1", "note": "(stereo partly drawn) [Example 88, 3-[(3S)-3-{[2′-amino-2-(morpholin-4-yl)-4,5′-bipyrimidin-6-yl]amino}-3-(hydroxymethyl)pyrrolidin-1-yl]piperidin-2-one]", "pKi": 9.17},
      {"smiles": "Nc1ncc(-c2cc(N[C@@]3(CO)CCN(C(=O)N4CCC4)C3)nc(N3CCOCC3)n2)cn1", "note": "[Example 89, [(3S)-3-{[2′-amino-2-(morpholin-4-yl)-4,5′-bipyrimidin-6-yl]amino}-3-(hydroxymethyl)pyrrolidin-1-yl](azetidin-1-yl)methanone]", "pKi": "> 10.74"},
      {"smiles": "Nc1ncc(-c2cc(N[C@@]3(CO)CCN(C(=O)c4cn[nH]c4)C3)nc(N3CCOCC3)n2)cn1", "note": "[Example 90, [(3S)-3-{[2′-amino-2-(morpholin-4-yl)-4,5′-bipyrimidin-6-yl]amino}-3-(hydroxymethyl)pyrrolidin-1-yl](1H-pyrazol-4-yl)methanone]", "pKi": "> 10.74"},
      {"smiles": "Nc1ncc(-c2cc(N[C@@]3(CO)CCN(C(=O)C4CC4)C3)nc(N3CCOCC3)n2)cn1", "note": "[Example 92, [(3S)-3-{[2′-amino-2-(morpholin-4-yl)-4,5′-bipyrimidin-6-yl]amino}-3-(hydroxymethyl)pyrrolidin-1-yl](cyclopropyl)methanone]", "pKi": "> 10.74"},
      {"smiles": "Nc1ncc(-c2cc(N[C@@]3(CO)CCN(C(=O)OC4CC4)C3)nc(N3CCOCC3)n2)cn1", "note": "[Example 93, cyclopropyl (3S)-3-{[2′-amino-2-(morpholin-4-yl)-4,5′-bipyrimidin-6-yl]amino}-3-(hydroxymethyl)pyrrolidine-1-carboxylate]", "pKi": "> 10.74"},
      {"smiles": "CC[C@@]1(Nc2cc(-c3cnc(N)nc3)nc(N3CCOCC3)n2)CCN(C(=O)C2(F)CC2)C1", "note": "[Example 94, [(3R)-3-{[2′-amino-2-(morpholin-4-yl)-4,5′-bipyrimidin-6-yl]amino}-3-ethylpyrrolidin-1-yl](1-fluorocyclopropyl)methanone]", "pKi": 9.20},
      {"smiles": "CCOC(=O)N1CC[C@@](CC)(Nc2cc(-c3cnc(N)nc3)nc(N3CCOCC3)n2)C1", "note": "[Example 95, ethyl (3R)-3-{[2′-amino-2-(morpholin-4-yl)-4,5′-bipyrimidin-6-yl]amino}-3-ethylpyrrolidine-1-carboxylate]", "pKi": 9.39},
      {"smiles": "Nc1ncc(-c2cc(N[C@@]3(CO)CCN(C(=O)C4(F)CNC4)C3)nc(N3CCOCC3)n2)cn1", "note": "[Example 97, [(3S)-3-{[2′-amino-2-(morpholin-4-yl)-4,5′-bipyrimidin-6-yl]amino}-3-(hydroxymethyl)pyrrolidin-1-yl](3-fluoroazetidin-3-yl)methanone]", "pKi": "> 10.74"},
      {"smiles": "Nc1ncc(-c2nc(N[C@@]3(CO)CCN(C(=O)OCC(F)F)C3)nc(N3CCOCC3)n2)cn1", "note": "[Example 99, 2,2-difluoroethyl (3S)-3-{[4-(2-aminopyrimidin-5-yl)-6-(morpholin-4-yl)-1,3,5-triazin-2-yl]amino}-3-(hydroxymethyl)pyrrolidine-1-carboxylate]", "pKi": 10.57}
    ]}
  ]
}
